Results published in article PMC10095550, “Design, Synthesis and Biological Evaluation of 6-(Imidazo[1,2-a]pyridin-6-yl)quinazoline Derivatives as Anticancer Agents via PI3Kα Inhibition” (International Journal of Molecular Sciences, 2023).

Target: T1, PI3Kα (Homo sapiens, UniProt P42336)
T1 construct: gene PIK3CA
Test: ADP-Glo Max kinase assay
Format: biochemical

T1 sequence (P42336 whole entry): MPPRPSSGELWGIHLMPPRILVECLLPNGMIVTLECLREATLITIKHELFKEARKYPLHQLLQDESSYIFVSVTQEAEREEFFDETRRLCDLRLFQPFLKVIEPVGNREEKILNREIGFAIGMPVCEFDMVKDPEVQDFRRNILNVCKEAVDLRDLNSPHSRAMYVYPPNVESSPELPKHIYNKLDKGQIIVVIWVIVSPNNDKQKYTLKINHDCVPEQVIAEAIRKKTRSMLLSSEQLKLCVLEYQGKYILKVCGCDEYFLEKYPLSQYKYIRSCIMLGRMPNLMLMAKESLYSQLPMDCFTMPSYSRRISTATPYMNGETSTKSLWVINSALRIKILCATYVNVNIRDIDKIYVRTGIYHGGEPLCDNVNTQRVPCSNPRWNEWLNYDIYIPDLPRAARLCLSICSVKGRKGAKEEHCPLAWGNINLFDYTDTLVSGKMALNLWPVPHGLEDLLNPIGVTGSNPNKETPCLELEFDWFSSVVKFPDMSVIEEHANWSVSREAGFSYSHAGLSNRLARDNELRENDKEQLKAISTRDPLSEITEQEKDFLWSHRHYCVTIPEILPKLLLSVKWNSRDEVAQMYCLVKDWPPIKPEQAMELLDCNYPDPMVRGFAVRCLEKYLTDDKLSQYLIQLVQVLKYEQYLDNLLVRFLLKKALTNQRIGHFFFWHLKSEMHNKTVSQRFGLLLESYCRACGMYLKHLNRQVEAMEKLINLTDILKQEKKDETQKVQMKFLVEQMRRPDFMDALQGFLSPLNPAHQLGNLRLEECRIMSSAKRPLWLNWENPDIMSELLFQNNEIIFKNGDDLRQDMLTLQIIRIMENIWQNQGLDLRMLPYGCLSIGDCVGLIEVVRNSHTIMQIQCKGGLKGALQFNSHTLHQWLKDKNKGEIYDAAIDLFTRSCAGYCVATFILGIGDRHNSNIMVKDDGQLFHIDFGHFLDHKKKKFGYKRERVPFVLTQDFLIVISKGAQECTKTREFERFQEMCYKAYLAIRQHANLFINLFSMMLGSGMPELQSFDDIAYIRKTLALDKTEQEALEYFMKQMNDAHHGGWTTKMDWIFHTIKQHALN

- IC50: 1.94 ± 0.66 nM
Compound: c1ccc(-c2cn3cc(-c4ccc5ncnc(NCC6CCOCC6)c5c4)ccc3n2)cc1 [13k, 6-(2-phenylimidazo[1,2-a]pyridin-6-yl)-N-((tetrahydro-2H-pyran-4-yl)methyl)quinazolin-4-amine]
